Test results from patent publication US9433622B2, “Pyrimidine compounds useful in the treatment of diseases mediated by IKKE and/or TBK1 mechanisms” (DOMAINEX LIMITED, priority 2013, dated 2016).
Where two headings read alike, the source gives them in different places.

Legend:
IKKε = IKKε (Homo sapiens (Human), UniProt Q14164); experiment: Lanthascreen TR-FRET kinase inhibition assay, IKKε; type: biochemical
Protocol: (§1) Compounds of the invention (synthesised as described below) were tested for activity against the IKKε and TBK-1 enzyme as follows:
(§2) Inhibitions studies were performed using a time-resolved fluorescence-based Lanthascreen™ assay. Phosphorylation of a fluorescein-labelled substrate peptide is measured using terbium-labeled phosphospecific antibodies.
(§3) Kinase inhibition assays (10 μL) were performed at 20° C. in 384-well plate format. […] The final reaction conditions contained 400 nM fluorescein-IkBα substrate ([…]), 20 μM ATP, 2 nM or 8 nM IKKε or TBK1 kinase respectively, and 3% DMSO in kinase assay buffer consisting of 50 mM HEPES (pH 7.5), 10 mM MgCl, 1 mM EGTA, 0.01% Brij-35.
(§4) Compound dilutions were prepared from 10 mM DMSO stocks by dilution into DMSO.
(§5) The kinase phosphorylation assay was initiated by the addition of the kinase and the reaction was allowed to proceed for 1 h or 2.5 h for IKKε and TBK-1 kinase respectively.

TBK1 = TBK1 (Homo sapiens (Human), UniProt Q9UHD2); experiment: Lanthascreen TR-FRET kinase inhibition assay, TBK1; type: biochemical; details: 20 μM ATP (apparent Km), 8 nM kinase, 2.5 h
Protocol: as §1, §2, §3, §4, §5

[1] = 20 μM ATP (apparent Km), 2 nM kinase, 1 h

TBK1, sequence (Q9UHD2 whole entry): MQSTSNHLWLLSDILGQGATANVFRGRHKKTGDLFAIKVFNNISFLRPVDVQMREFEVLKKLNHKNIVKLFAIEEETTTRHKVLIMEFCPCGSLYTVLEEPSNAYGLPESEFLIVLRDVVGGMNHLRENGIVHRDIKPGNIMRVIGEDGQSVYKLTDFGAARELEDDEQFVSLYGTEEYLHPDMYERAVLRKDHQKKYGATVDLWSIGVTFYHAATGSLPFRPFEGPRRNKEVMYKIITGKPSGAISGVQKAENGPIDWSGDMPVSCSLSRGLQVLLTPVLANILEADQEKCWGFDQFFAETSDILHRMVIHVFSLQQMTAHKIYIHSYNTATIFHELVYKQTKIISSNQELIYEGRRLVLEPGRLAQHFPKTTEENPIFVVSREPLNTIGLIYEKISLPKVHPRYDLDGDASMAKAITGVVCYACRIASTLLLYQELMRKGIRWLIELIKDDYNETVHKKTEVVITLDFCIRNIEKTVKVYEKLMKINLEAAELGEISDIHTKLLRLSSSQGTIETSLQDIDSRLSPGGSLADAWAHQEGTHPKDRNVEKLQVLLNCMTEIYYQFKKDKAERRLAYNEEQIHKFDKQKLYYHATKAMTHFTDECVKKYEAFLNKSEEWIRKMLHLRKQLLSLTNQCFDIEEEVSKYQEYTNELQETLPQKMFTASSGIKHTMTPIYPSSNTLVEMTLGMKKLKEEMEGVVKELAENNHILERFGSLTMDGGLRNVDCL
IKKε, sequence (Q14164 whole entry): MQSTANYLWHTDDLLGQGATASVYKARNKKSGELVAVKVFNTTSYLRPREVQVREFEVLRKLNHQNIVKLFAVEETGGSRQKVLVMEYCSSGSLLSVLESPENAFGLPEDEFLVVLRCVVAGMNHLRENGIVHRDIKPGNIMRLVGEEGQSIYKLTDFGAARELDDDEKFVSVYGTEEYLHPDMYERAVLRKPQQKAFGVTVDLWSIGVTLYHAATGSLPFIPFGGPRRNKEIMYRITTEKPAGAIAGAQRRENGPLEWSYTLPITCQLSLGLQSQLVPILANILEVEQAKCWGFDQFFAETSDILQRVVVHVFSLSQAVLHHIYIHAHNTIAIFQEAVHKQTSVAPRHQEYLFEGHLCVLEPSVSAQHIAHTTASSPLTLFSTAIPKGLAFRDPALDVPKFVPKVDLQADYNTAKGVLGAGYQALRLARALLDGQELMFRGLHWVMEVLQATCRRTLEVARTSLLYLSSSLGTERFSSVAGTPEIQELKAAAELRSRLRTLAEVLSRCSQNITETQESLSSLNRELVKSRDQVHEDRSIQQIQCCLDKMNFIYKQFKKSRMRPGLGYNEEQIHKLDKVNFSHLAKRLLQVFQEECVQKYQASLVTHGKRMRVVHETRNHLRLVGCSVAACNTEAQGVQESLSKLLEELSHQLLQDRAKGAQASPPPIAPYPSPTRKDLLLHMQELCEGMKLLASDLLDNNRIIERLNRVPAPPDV

| IC50 (IKKε; [1]) [nM] | IC50 (TBK1) [nM] | IC50 (IKKε) [nM] | SMILES |
| --- | --- | --- | --- |
| < 15 | < 30 | – | N#Cc1nc(-c2ccnc(Nc3ccc(CN4CCOCC4)nc3)n2)ccc1N1CCC2(COC2)C1 [DMX-165, 6-[2-(6-Morpholin-4-ylmethyl-pyridin-3-ylamino)-pyrimidin-4-yl]-3-(2-oxa-6-aza-spiro[3.4]oct-6-yl)-pyridine-2-carbonitrile] |
| < 1000 | < 100 | – | N#Cc1cc(-c2nc(Nc3ccc(NC(=O)CN4CCOCC4)nc3)ncc2F)cnc1N1CCCOCC1 [DMX-86, N-{5-[4-(5-Cyano-6-[1,4]oxazepan-4-yl-pyridin-3-yl)-5-fluoro-pyrimidin-2-ylamino]-pyridin-2-yl}-2-morpholin-4-yl-acetamide] |
| < 1000 | < 1000 | – | COCCN(C)c1ccc(-c2ccnc(Nc3cnn(C)c3)n2)nc1C#N [DMX-155] |
| < 100 | < 100 | – | CN(CCO)Cc1ccc(Nc2nccc(-c3cnc(N4CC[C@H](F)C4)c(C#N)c3)n2)cn1 [DMX-104, 2-((S)-3-Fluoro-pyrrolidin-1-yl)-5-[2-(6-{[(2-hydroxy-ethyl)-methyl-amino]-methyl}-pyridin-3-ylamino)-pyrimidin-4-yl]-nicotinonitrile] |
| < 30 | < 100 | – | CC(N)C(=O)Nc1ccc(Nc2nccc(-c3cnc(N4CC[C@H](F)C4)c(C#N)c3)n2)cn1 (stereo partly drawn) [DMX-56, 2-Amino-N-(5-{4-[5-cyano-6-((S)-3-fluoro-pyrrolidin-1-yl)-pyridin-3-yl]-pyrimidin-2-ylamino)-pyridin-2-yl)-propionamide] |
| < 30 | < 30 | – | CC(C(=O)Nc1ccc(Nc2nccc(-c3cnc(N4CC[C@H](F)C4)c(C#N)c3)n2)cn1)N1CCOCC1 (stereo partly drawn) [DMX-32, N-(5-{4-[5-Cyano-6-((S)-3-fluoro-pyrrolidin-1-yl)-pyridin-3-yl]-pyrimidin-2-ylamino}-pyridin-2-yl)-2-morpholin-4-yl-propionamide] |
| < 15 | < 15 | – | N#Cc1cc(-c2ccnc(Nc3ccc4c(c3)CNC4)n2)cnc1N1CC[C@H](F)C1 [DMX-126, 5-[2-(2,3-Dihydro-1H-isoindol-5-ylamino)-pyrimidin-4-yl]-2-((S)-3-fluoro-pyrrolidin-1-yl)-nicotinonitrile] |
| < 15 | < 15 | – | N#Cc1cc(-c2ccnc(Nc3ccc(C(=O)NCCO)cc3)n2)cnc1N1CC[C@H](F)C1 [DMX-48, 4-{4-[5-Cyano-6-((S)-3-fluoro-pyrrolidin-1-yl)-pyridin-3-yl]-pyrimidin-2-ylamino}-N-(2-hydroxy-ethyl)-benzamide] |
| < 100 | < 30 | – | CN1CCC(Nc2ccc(Nc3nccc(-c4cnc(N5CCC(F)(F)C5)c(C#N)c4)n3)cn2)CC1 [DMX-15, 2-(3,3-Difluoro-pyrrolidin-1-yl)-5-{2-[6-(1-methyl-piperidin-4-ylamino)-pyridin-3-ylamino]-pyrimidin-4-yl}-nicotinonitrile] |
| – | < 15 | < 15 | C[C@H]1COCCN1Cc1ccc(Nc2nccc(-c3ccc(N4CC[C@H](F)C4)c(C#N)n3)n2)cn1 [DMX-149, 3-((S)-3-Fluoro-pyrrolidin-1-yl)-6-{2-[6-((S)-3-methyl-morpholin-4-ylmethyl)-pyridin-3-ylamino]-pyrimidin-4-yl}-pyridine-2-carbonitrile] |
| < 30 | < 30 | – | CS(=O)(=O)CCNCc1ccc(Nc2nccc(-c3cnc(N4CC[C@H](F)C4)c(C#N)c3)n2)cn1 [DMX-98, 2-((S)-3-Fluoro-pyrrolidin-1-yl)-5-(2-{6-[(2-methanesulfonyl-ethylamino)-methyl]-pyridin-3-ylamino}-pyrimidin-4-yl)-nicotinonitrile] |
| < 15 | < 15 | – | CN1CCN(c2ccc(Nc3nccc(-c4cnc(N5CCCC5)c(C#N)c4)n3)cn2)CC1 [DMX-3, 5-{2-[6-(4-Methyl-piperazin-1-yl)-pyridin-3-ylamino]-pyrimidin-4-yl}-2-pyrrolidin-1-yl-nicotinonitrile] |
